Results on nine compounds are retold here after US11299515B2, “Optimized peptides for targeting human nerves and their use in image guided surgery, diagnostics and therapeutic” (The Regents of the University of California, priority 2017, dated 2022).

Bounds are passed on as bounds.

In series [1] the test system is autonomic nerves within the prostate. Description: In-vivo imaging of autonomic nerves within the prostate of mice. The settings on record: rodent models. The protocol: To visualize the autonomic nerves within the prostate of mice, NP41 peptide conjugated to fluorescein (FAM-NP41) was injected intravenously followed by imaging of prostate and surrounding tissue after surgical resection. Strong fluorescence from dye that rapidly accumulates in the bladder hindered visualization of the nerves within the prostate. To enhance visualization the bladder was surgically drained of urine and sutured prior to imaging. The urethra, an anatomically distinct structure, is never emptied of urine as the mice are alive for the duration of the experiment, resulting in a continuous passage of urine carrying metabolized peptide-dye to the bladder […]. […] To quantify nerve detection a total of 10 mice were injected with 600 nmoles FAM-NP41 and signal intensity was measured for nerve versus adjacent non-nerve tissue using both fluorescence and white light reflectance. Values to the right of the line indicate that there is improved visualization with fluorescence compared to reflected light. […]
Following anesthesia with intra-peritoneal injection of ketamine (80 mg/kg) and midazolam (40 mg/kg), FAM-NP41 or its variants were administered into mice retro-orbitally. […] The autonomic nerve along the cavernosal vessel in the prostate was imaged and recorded using a custom-made surgical imaging system. […]

For series [2], the system named is sciatic nerve. Format: in vivo, mice. As to the method:
Either 150 or 450 nmoles of fluorescein labeled synthetic peptides were injected intravenously into mice. After a 2 hour waiting period for washout of nonspecific binding, mice were anesthetized and skin incisions were made over the dorsal surface of the hind legs to expose the sciatic nerve. Brightfield and fluorescent images were obtained with a dissecting microscope using Metamorph software (FIG. 1). Quantitation of fluorescence of nerves and adjacent non-nerve tissue was performed with Image J (FIG. 2). Peptides were also topically applied to human nerve sections. Nerves were freshly frozen in OTC prior to sectioning. Peptides were topically applied at concentration at 300 uM with images being shown for HNP401, HNP402, HNP404 and previous reported nerve binding peptides NP41 (FIG. 3)). Also shown are images for variants HNP301 ([…]) and NP124. NP713 was also tested and has not reported in a publication. NP713, is a derivative of NP41 with sequence […] that was enriched after 7 rounds of selection against mouse tissue, and was also found after 4 rounds of selection against human tissue. […] All D-amino acid controls for NP-41 and NP713 and non peptide conjugated carboxyfluorescein, are also shown. […] HNP401 was then tested for labeling of rat sciatic and rat prostate cavernosal nerve in-vivo. […] FIGS. 6 and 7 show in-vivo labeling of rat prostate cavernosal nerve with comparison to white light visualization.
Following anesthesia with intra-peritoneal injection of ketamine (80 mg/kg) and midazolam (40 mg/kg), FAM-NP41 or its variants were administered into mice retro-orbitally. After a washout period of 2-4 hours, the animals were anesthetized with ketamine (50 mg/ml) and xylazine (20 mg/ml). The bladder and prostate were exposed through a midline abdominal incision. The autonomic nerve along the cavernosal vessel in the prostate was imaged and recorded using a custom-made surgical imaging system. This system is a modified from Olympus MVX10 scope capable of hi-resolution fluorescence, RGB reflectance and realtime overlay with zoom from 0.6 to 5.7 cm field of view. Image) was used for quantitative analysis of nerve contrast for each peptide dye conjugate tested. Images of autonomic nerve in prostate were selected from the recorded files and magnified 300-400% prior to selection of ROI and measurement. Nerves and adjacent non-nerve tissues ROIs were hand-selected using polygonal selection tool at the same location from both of reflectance and fluorescence images. The mean and standard deviation of the pixel intensities within the selected areas were compared for nerves (mean=In, SD=σn) and adjacent background tissue (mean=Ib, SD=σb). Nerve to non-nerve contrast was calculated after background subtraction with formula |In−Ib|/(σn^2+σm^2)^0.5. For imaging the nerves in the prostate gland of male rats peptide dye conjugate were injected retro-orbitally. FAM-HNP401 was injected at a concentration of 13 mgs/kg followed by imaging after 15 minutes or alternatively a dose of 52 mgs/kg was used with imaging after 3 hours. Live animal surgery was performed under a ketamine-xylazine cocktail according to IACUC protocol. Sterile technique was used to expose the prostate; bladder was drained with a small syringe and sutured. The surgical field was washed with sterile saline prior to imaging. Mann-Whitney test was used to analyze data for both mice and rats to compare nerve intensity and nerve to non-nerve contrast between white light reflectance and fluorescence.

The subject of series [3] is sciatic nerve. The settings on record: live mice, reference [22]; cited from earlier work.
Series [4] has as its system human sural nerve. Description: Topical application of FAM-labelled peptides on human nerve sections. The class given is binding. The settings on record: for normalized average signal intensity (normalized to FAM-HNP401): 100 μM FAM labelled, human sural nerve sections; for binding / contrast among peptides and controls screened on human nerve: 100 μM topical, sural nerve and temporalis muscle. The text has this:
To determine the affinity of phage selected peptides for binding to human nerve they were chemically synthesized by solid-phase synthesis and labeled with fluorescein at the C-terminus via a GGC linker. Peptides were topically applied to sectioned human sural nerve and human temporalis muscle to determine nerve to muscle contrast. […] To confirm binding and contrast of HNP401 for additional nerve types binding was compared in nerve and muscle with both HNP401 and NP41 on facial brachial plexus nerve (FIG. 9). […] FAM-HNP401 was additionally tested topically on ex-vivo tissue for labeling of mouse facial nerve with surrounding muscle (FIG. 10, J-M).
To test the affinity of selected phage display peptides for binding to human nerves, they were chemically synthesized by solid-phase synthesis and labeled with fluorescein at the C-terminus. Peptides were topically applied to sections of surgically harvested human sural nerve and temporalis muscle to determine nerve to muscle contrast for selected peptides and controls (FIG. 23). […] To quantify differential binding to nerve versus muscle, fluorescence signal intensity was measured for ROIs from the perineurium of select nerves and human temporalis muscle.
Human sural nerve, antebrachial nerve and laryngeal nerve and temporalis muscle were obtained under IRB protocol number 130837 for Dr. Quyen Nguyen. Human peripheral nerves (typically sural) were obtained from patients undergoing nerve resection procedures. Human nerves from prostate gland of two patients were acquired under Moores Cancer Centre Biorepository IRB protocol number 090401. Tissue were sectioned and mounted on glass slides or Cryojane tape. Tissue sections were placed in a humidifier chamber for 30 min before application of the peptide solution. Peptides were diluted to appropriate concentration in 0.5×HBSS prior to topical application. 50 μl of peptide solution of with known concentration (1 μM to 375 μM) were applied to 10 μm nerve sections on tape or slides and incubated for 30 minutes in a humidifier chamber. After incubation with peptide nerve sections were washed with twice with 0.5×HBSS and once with 1×PBS. A cover-slip was applied and slides were imaged immediately on either a Zeiss Lumar dissecting scope of Nikon A1 confocal microscope. For confocal imaging tissue sections of 10 μm thickness were imaged with 488 nm laser excitation 515 (25) and a 10× air objective and a […] size. For immunohistochemistry the confocal Images were acquired with a 20× air objective at 0.4 μm/pixel.
Image J was used to analyze and compare images acquired using the confocal microscope and the Lumar dissecting scope. For each experimental set where probes were compared, we kept the acquisition parameters identical so as to directly compare the data obtained. […] All raw image files for a given experimental cohort were loaded at the same time into Image J as 16-bit tiff images. We then levelled the image for tissue treated with FAM-HNP401. Once these levels were set, the settings are propagated to all images in one step using Image J. The brightest image is set as the benchmark for all other images in the cohort to avoid saturating when the leveling is propagated.

Series [5] relates to autonomic nerve within the prostate. Description: In-vivo imaging of autonomic nerve within the prostate of rats. The settings on record: rat prostate cavernosal nerve, live rats.
Series [6] is described as follows: Fluorescent plate reader assay of quenching by food dyes. An excerpt:
FIG. 21: Food dyes efficiently quench FAM-NP41 bladder fluorescence. A fluorescent plate reader assay was used to show dose dependent quenching of FAM-NP41 fluorescence. Erythrosine extra bluish (Santa Cruz Biotechnology, Inc.) was the most efficient quencher with >80% quenching at 2.5 times dye to fluorescein ratio and >95% quenching at 5× dye to fluorescein ratio (A). Other food dyes tested included Allura Red and Sunset Yellow. To test for quenching in-vivo we administered, by direct iv injection, 50 mg/kg MW 879.76 (^˜1.5 μmoles per 25 gm mouse) to mice that had been injected with 150 nmoles of FAM-NP41 2 hours prior. This represents approximately a 10× dye to FAM-NP41 dose. Some bladder fluorescence remained after imaging so additional dye (30 μl, 10 mM Erythrosin extra bluish) was injected directly into the bladder. Images are shown for mouse bladder with no dye quencher (B) and addition of Erythrosine extra bluish (intravenous and intra bladder) (C) with bladder fluorescence quench to near background level. Dye would likely not be needed if this method was used for human patients as bladder catheterization in patients could be started as FAM-NP41 is administered so bladder fluorescence could be washed out.

Regarding NTQTLAKAPEHT [NP41, reference compound], in series [1], the “average increase in nerve to non-nerve signal, fluorescence vs white light reflectance” value amounted to 17%. The “contrast (nerve fluorescent intensity/muscle fluorescent intensity)” value in series [2] (450 nmols, FAM-labelled peptide, living wild type mice, FIG. 2) worked out at 6.7 fold. Also, the washout from nerve result in series [2] (mouse, in vivo) is “little remaining signal after 24 hours”. Further, the “time to almost complete wash out after systemic injection” value in series [3] is at most 24 h.

With “EEPYYVVKKSS [HNP401-N-6, tested FAM labelled]”, the “normalized average signal intensity (normalized to FAM-HNP401)” value (shortened to “normalized average signal intensity”) in series [4] is recorded as 1.0±0.34.

Take SGQVPWEEPYYVVKK [tested FAM labelled]: the “effect of terminal deletion on binding” value in series [4] (removal of C-terminal serine) is listed as “tolerated”.

Regarding SHSSEFPRSWDMETN [HNP301], the “contrast for prostate nerve labeling compared to HNP401” value in series [5] is on record as “not showing as much contrast”.

In the case of “PYYVVKKSS [HNP401-N-8, tested FAM labelled]”, in series [4], the “normalized average signal intensity” value was 0.98±0.31.

As to carboxyfluorescein [reference compound], the “binding / contrast among peptides and controls screened on human nerve” value was “only weak non-specific binding” in series [4]; “low signal and non-specific binding” in series [4] (listed as Carboxyfluorescein).

As for “QVPWEEPYYVVKKSS [HNP401-N-2, tested FAM labelled]”, the “average signal intensity (nerve binding of deletion variants)” value in series [4] (100 uM FAM labelled, human nerve sections, n=5) is recorded as 1498.73 (+/−517.63). Moreover, the “normalized average signal intensity” value in series [4] came out at 2.02±0.65. Besides, the “Normalized nerve to temporalis muscle contrast, increase with respect to FAM-HNP401” value in series [4] (human sural nerve vs temporalis muscle) is given as 3 fold.

As to `O.O=C([O-])c1ccccc1-c1c2cc(I)c(=O)c(I)c-2oc2c(I)c([O-])c(I)cc12.[Na+].[Na+]` [Erythrosine extra bluish], the “quenching of FAM-NP41 fluorescence” value in series [6] (2.5 times dye to fluorescein ratio) is listed as over 80%; in series [6] (5× dye to fluorescein ratio), over 95%.

Regarding “PWEEPYYVVKKSS [HNP401-N-4, tested FAM labelled]”, the “normalized average signal intensity” value in series [4] is listed as 0.56±0.18.
